Columns and labels:
[1] = system: glucocorticoid-induced muscle atrophy; assay: mouse glucocorticoid-induced atrophy model; type: in vivo; settings: male mice, dexamethasone 1.2 mg/kg/d in drinking water, 0.1-1.0 mg/kg/d by osmotic minipump, nine days
Protocol: Legend: A—water only with no dexamethasone included in drinking water (non-atrophied control); B—water+dexamethasone (atrophied control); C—sauvagine (0.1 mg/kg/d)+dexamethasone; D—sauvagine (0.3 mg/kg/d)+dexamethasone; E—sauvagine (1.0 mg/kg/d)+dexamethasone; *—p≦0.05 compared to water; #—p≦0.05 compared to water+dexamethasone. Following the addition of the glucocorticoid, dexamethasone, to the drinking water (1.2 mg/kg/d), male mice were dosed with the above indicated agents or vehicle control (physiological saline) by continuous infusion using an Alzet osmotic minipump at 5 μl/hr until the end of the experimental period (without additional theophylline). The daily delivered dose of sauvagine is as indicated above. Minipump implantation was performed at the time of initiation of dexamethasone exposure. Nine days following the initiation of dosing sauvagine, the medial gastrocnemius and tibialis anterior muscles were removed and weighed to determine the degree of atrophy.
The glucocorticoid-induced atrophy model involves the administration of a glucocorticoid to the test animal, e.g., 1.2 mg/kg/day of dexamethasone in the drinking water. […] At various times following glucocorticoid administration, the extent of atrophy in the affected muscles is analyzed as described above for the denervation model.

[2] = system: denervation-induced atrophy of skeletal muscle; assay: mouse sciatic nerve denervation atrophy model; type: in vivo
Protocol: Legend: A—physiological saline (control); B—sauvagine (0.01 mg/kg)+theophylline; C—sauvagine (0.03 mg/kg)+theophylline; D—sauvagine (0.1 mg/kg)+theophylline; E—sauvagine (1.0 mg/kg)+theophylline; *—p≦0.05 compared to saline. Following denervation of the right sciatic nerve, male mice were injected subcutaneously in the midscapular region twice daily with sauvagine, at the doses indicated above or vehicle control (physiological saline) for nine days. Sauvagine was co-administered with 30 mg/kg theophylline. On day nine, the medial gastrocnemius muscle was removed and weighed to determine the degree of atrophy.
Legend: A—water (control); B—sauvagine (0.1 mg/kg/d); C—sauvagine (0.3 mg/kg/d); D—sauvagine (1.0 mg/kg/d); *—p≦0.05 compared to water. Following denervation of the right sciatic nerve, male mice were dosed with either sauvagine or vehicle control (physiological saline) by continuous infusion using an Alzet osmotic minipump at 5 μl/hr until the end of the experimental period (without additional theophylline). The daily delivered dose of sauvagine is indicated above. Minipump implantation was performed at the time of sciatic nerve denervation. On day nine the tibialis anterior muscle was removed and weighed to determine the degree of atrophy.
Legend: A—water (control); B—sauvagine (1 mg/kg/d); C—urocortin (1.0 mg/kg/d); *—p≦0.05 compared to water. Following denervation of the right sciatic nerve, male mice were dosed with the above indicated agents or vehicle control (physiological saline) by continuous infusion using an Alzet osmotic minipump at 5 μl/hr until the end of the experimental period (without additional theophylline). The daily delivered dose of the agents is indicated above. Minipump implantation was performed at the same time as the sciatic nerve denervation. On day nine the tibialis anterior muscle was removed and weighed to determine the degree of atrophy.
Legend: A-C—wild-type mice; D-F—CRF2R knockout mice. A and D—water (control); B and E—sauvagine (0.3 mg/kg/d); C and F—sauvagine (1.0 mg/kg/d); *—p≦0.05 compared to saline. Following denervation of the right sciatic nerve, female wild-type and CRF2R knockout mice were dosed with sauvagine or vehicle control by continuous infusion using an Alzet osmotic minipump at 5 μl/hr for nine days at the daily delivered dose indicated above. On day nine, the tibialis anterior muscle was removed and weighed to determine the degree of atrophy.
The sciatic nerve denervation atrophy model involves anesthetizing the animal followed by the surgical removal of a short segment of either the right or left sciatic nerve, e.g., in mice the sciatic nerve is isolated approximately at the midpoint along the femur and a 3-5 mm segment is removed. This denervates the lower hind limb musculature resulting in atrophy of these muscles. Typically, innervation to the biceps femoris is left intact to provide satisfactory motion of the knee for virtually normal ambulation. Typically, in untreated animals, muscle mass of the denervated muscles is reduced 30-50% ten days following denervation. Following denervation, test compounds are administered e.g., by injection or by continuous infusion, e.g., via implantation of an osmotic minipump (e.g., Alzet, Palo Alto, Calif.), to determine their effect on denervation induced skeletal muscle atrophy. At various times following denervation, the animals are euthanized and lower leg muscles are dissected rapidly from both the denervated and nondenervated legs, the muscles, cleaned of tendons and connective tissue, are weighed. The extent of atrophy in the affected muscles is analyzed, for example, by measuring muscle mass, muscle cross-sectional area, myofiber cross-sectional area or contractile protein content.

CC[C@H](C)[C@H](NC(=O)[C@@H](NC(=O)[C@H](CC(=O)O)NC(=O)[C@H](CC(C)C)NC(=O)[C@H](CC(C)C)NC(=O)[C@H](CC(C)C)NC(=O)[C@H](CCCNC(=N)N)NC(=O)[C@H](CC(N)=O)NC(=O)[C@H](CC(N)=O)NC(=O)[C@H](C)NC(=O)[C@H](C)NC(=O)[C@H](CCC(N)=O)NC(=O)[C@H](CCC(N)=O)NC(=O)[C@H](CCCCN)NC(=O)[C@H](CCC(=O)O)NC(=O)[C@H](CCCCN)NC(=O)[C@H](CCC(=O)O)NC(=O)[C@H](CCC(N)=O)NC(=O)[C@H](CCCCN)NC(=O)[C@H](CCC(=O)O)NC(=O)[C@@H](NC(=O)[C@H](CCC(=O)O)NC(=O)[C@@H](NC(=O)[C@H](CCSC)NC(=O)[C@H](CCCCN)NC(=O)[C@H](CCCNC(=N)N)NC(=O)[C@H](CC(C)C)NC(=O)[C@H](CC(C)C)NC(=O)[C@H](CCC(=O)O)NC(=O)[C@H](CC(C)C)NC(=O)[C@H](CO)NC(=O)[C@H](CC(C)C)NC(=O)[C@H](CC(=O)O)NC(=O)[C@@H](NC(=O)[C@H](CO)NC(=O)[C@@H](NC(=O)[C@@H]1CCCN1C(=O)[C@@H]1CCCN1C(=O)CNC(=O)[C@@H]1CCC(=O)N1)[C@@H](C)CC)[C@@H](C)CC)[C@@H](C)CC)[C@@H](C)CC)[C@@H](C)O)C(N)=O [sauvagine]
glucocorticoid-induced atrophy of the tibialis anterior muscle (muscle weight) ([1]; FIG. 3A): inhibits glucocorticoid-induced muscle atrophy
glucocorticoid-induced atrophy of the medial gastrocnemius muscle (muscle weight) ([1]; FIG. 3B): inhibits glucocorticoid-induced muscle atrophy
denervation-induced atrophy of the medial gastrocnemius muscle (muscle weight) ([2]; FIG. 1, male mice, 0.01-1.0 mg/kg s.c. twice daily + 30 mg/kg theophylline, nine days): inhibits denervation-induced atrophy
denervation-induced atrophy of the tibialis anterior muscle (muscle weight) ([2]; FIG. 2, male mice, 0.1-1.0 mg/kg/d continuous infusion by osmotic minipump, no theophylline, day nine): inhibits denervation-induced atrophy
denervation-induced atrophy of the tibialis anterior muscle (muscle weight) ([2]; FIG. 5, male mice, 1 mg/kg/d continuous infusion by osmotic minipump, no theophylline, day nine): inhibit denervation-induced atrophy
denervation-induced atrophy of the tibialis anterior muscle (muscle weight) ([2]; FIG. 8, female wild-type mice, 0.3 and 1.0 mg/kg/d by osmotic minipump, nine days): inhibits the atrophy

Reference: US7572768B2, “Methods for identifying compounds for regulating muscle mass or function using corticotropin releasing factor receptors” (priority 2001, dated 2009)
